Measured values from US7915255B2, “Metabolism-modulating agents and uses therefor” (Verva Pharmaceuticals Pty Ltd, priority 2004, dated 2011).
pIC50: −log10 of the molar value. “Also recorded” adds a separate entry of the source.

Legend:
[1] = system: IMPDH; experiment: Insulin-stimulated 32P phosphorylation of IMPDH; assay type: cell-based
Protocol: (§1) 3T3-L1 cells, CHO.IR cells (46) and fibroblast cells derived from vimentin null (Vim^−/−) mice were cultured as described (28, 47). Human preadipocytes were cultured and differentiated as described (47). Transfections were performed using Lipofectamine. Cells were serum starved for at least 2 h before treatment with insulin (1 μM, 15 min) or pre-treatment with wortmannin (100 nM, 25 min), LY294002 (50 μM, 10 min) or C2-ceramide (100 μM, 2 h) followed by insulin or oleate. To induce lipid body accumulation cells were cultured in regular growth medium supplemented with 200 μM oleate complexed to fatty acid free bovine serum albumin (BSA) in a 6:1 molar ratio. Mycophenolic acid (MPA) was dissolved in methanol to give a stock solution of 30 mM. This was further diluted in methanol, prior to direct addition to the culture media such that the final concentration of methanol was always 0.1%. Guanosine was dissolved in DMSO to give a stock solution of 100 mM. This was further diluted in DMSO, prior to direct addition to the culture media such that the final concentration of DMSO was always 0.33%. Media was refreshed, with addition of fresh MPA, guanosine, or vehicle, every 3 days as appropriate. […] Samples were subjected to SDS-PAGE and analysed by immunoblotting and autoradiography. […]

[2] = system: Akt; experiment: Akt phosphorylation (immunoblotting); assay type: cell-based; settings: C2-ceramide; data not shown
Protocol: (§2) 3T3-L1 cells, CHO.IR cells (46) and fibroblast cells derived from vimentin null (Vim^−/−) mice were cultured as described (28, 47). Human preadipocytes were cultured and differentiated as described (47). Transfections were performed using Lipofectamine. Cells were serum starved for at least 2 h before treatment with insulin (1 μM, 15 min) or pre-treatment with wortmannin (100 nM, 25 min), LY294002 (50 μM, 10 min) or C2-ceramide (100 μM, 2 h) followed by insulin or oleate. To induce lipid body accumulation cells were cultured in regular growth medium supplemented with 200 μM oleate complexed to fatty acid free bovine serum albumin (BSA) in a 6:1 molar ratio. Mycophenolic acid (MPA) was dissolved in methanol to give a stock solution of 30 mM. This was further diluted in methanol, prior to direct addition to the culture media such that the final concentration of methanol was always 0.1%. Guanosine was dissolved in DMSO to give a stock solution of 100 mM. […]
For western blotting, following appropriate treatment, cells were harvested in lysis buffer (50 mM HEPES (pH 7.4), 150 mM NaCl, 1% Triton-X-100, 1 mM Na3VO4, 30 mM NaF, 10 mM Na4P2O7, 10 mM EDTA, 1 μg/ml aprotinin, 1 μg/ml leupeptin, 2 mM PMSF) and clarified by centrifugation (2,000×g for 10 min). Protein concentration was determined using the BCA assay. […]

[3] = system: CHO.IR cells; experiment: Oleate-induced lipid accumulation, Oil red-O staining; assay type: cell-based, Chinese hamster; settings: LY294002 + 200 μM oleate, 5 h
Protocol: as §1, with “(Vim^-/-)” for “(Vim^−/−)”, “Quantification of lipids was determined by measuring Oil red-O staining at […]. Protein concentration was determined in parallel and values” for “Samples”, “normalised” for “subjected”, “protein.” for “SDS-PAGE and analysed by immunoblotting and autoradiography.”

[4] = system: 3T3-L1 preadipocytes; experiment: Adipogenesis of 3T3-L1 preadipocytes (lipid accumulation, G3PDH activity, protein); assay type: cell-based, murine
Protocol: (§3) 3T3-L1 cells, CHO.IR cells (46) and fibroblast cells derived from vimentin null (Vim^−/−) mice were cultured as described (28, 47). Human preadipocytes were cultured and differentiated as described (47). Transfections were performed using Lipofectamine. Cells were serum starved for at least 2 h before treatment with insulin (1 μM, 15 min) or pre-treatment with wortmannin (100 nM, 25 min), LY294002 (50 μM, 10 min) or C2-ceramide (100 μM, 2 h) followed by insulin or oleate. To induce lipid body accumulation cells were cultured in regular growth medium supplemented with 200 μM oleate complexed to fatty acid free bovine serum albumin (BSA) in a 6:1 molar ratio. Mycophenolic acid (MPA) was dissolved in methanol to give a stock solution of 30 mM. This was further diluted in methanol, prior to direct addition to the culture media such that the final concentration of methanol was always 0.1%. Guanosine was dissolved in DMSO to give a stock solution of 100 mM. This was further diluted in DMSO, prior to direct addition to the culture media such that the final concentration of DMSO was always 0.33%. Media was refreshed, with addition of fresh MPA, guanosine, or vehicle, every 3 days as appropriate. Cells were washed in ice cold PBS (pH 7.4) and harvested in 1 ml of ice-cold 50 mM Tris (pH 7.5) containing 1 mM EDTA and 500 μM DTT. Cells were disrupted by sonication and centrifuged at 12000 g for 15 min at 4° C. Before assay, 5 μl of 100 mM DTT was added. The supernatant was then assayed for G3PDH activity in a final concentration of 100 mM triethanolamine-HCl (pH 7.5), 2.5 mM EDTA, 0.24 mM NADH, 50 μM DTT and 0.4 mM dihydroxyacetone phosphate (DAP). The reaction was initiated by addition of DAP and the rate of change in A340 was measured using a FLUOstar Optimem spectrophotometer (BMG labtech, Victoria Australia). Each of three culture wells was assayed in duplicate with a reagent blank containing distilled water instead of substrate (DAP). An aliquot of the supernatant was assayed to determine protein concentration.

[5] = system: 3T3-L1 preadipocytes; experiment: Clonal expansion / cell number of differentiating 3T3-L1 cells (Syto60); assay type: cell-based, murine
Protocol: as §2
Essentially Syto60 staining was used to determine cell number following the manufacturers protocol. […] Finally, wells were aspirated and Syto60 staining was detected and quantitated using the LI-COR Odyssey Infrared Imaging System. DAPI was detected by fluorescence microscopy and was used to validate the Syto60 data in preliminary experiments.

[6] = system: 3T3-L1 cells; experiment: Western blotting of adipogenic transcription factors and IMPDH in differentiating 3T3-L1 cells; assay type: cell-based, murine
Protocol: 3T3-L1 cells, CHO.IR cells (46) and fibroblast cells derived from vimentin null (Vim^−/−) mice were cultured as described (28, 47). Human preadipocytes were cultured and differentiated as described (47). Transfections were performed using Lipofectamine. Cells were serum starved for at least 2 h before treatment with insulin (1 μM, 15 min) or pre-treatment with wortmannin (100 nM, 25 min), LY294002 (50 μM, 10 min) or C2-ceramide (100 μM, 2 h) followed by insulin or oleate. To induce lipid body accumulation cells were cultured in regular growth medium supplemented with 200 μM oleate complexed to fatty acid free bovine serum albumin (BSA) in a 6:1 molar ratio. Mycophenolic acid (MPA) was dissolved in methanol to give a stock solution of 30 mM. This was further diluted in methanol, prior to direct addition to the culture media such that the final concentration of methanol was always 0.1%. Guanosine was dissolved in DMSO to give a stock solution of 100 mM. This was further diluted in DMSO, prior to direct addition to the culture media such that the final concentration of DMSO was always 0.33%. Media was refreshed, with addition of fresh MPA, guanosine, or vehicle, every 3 days as appropriate.
For western blotting, following appropriate treatment, cells were harvested in lysis buffer (50 mM HEPES (pH 7.4), 150 mM NaCl, 1% Triton-X-100, 1 mM Na3VO4, 30 mM NaF, 10 mM Na4P2O7, 10 mM EDTA, 1 μg/ml aprotinin, 1 μg/ml leupeptin, 2 mM PMSF) and clarified by centrifugation (2,000×g for 10 min). Protein concentration was determined using the BCA assay. Equal protein was subjected to SDS-PAGE and immunoblotting and visualized by autoradiography (using enhanced chemiluminescence) or fluorescent analysis using the L1-Cor Odyssey system.

[7] = system: primary human preadipocytes; experiment: Adipogenesis of primary human preadipocytes (lipid accumulation, G3PDH activity); assay type: cell-based
Protocol: as §3

CCCCCCCCCCCCC/C=C/[C@@H](O)[C@H](CO)NC(C)=O [C2-ceramide]
insulin-stimulated IMPDH phosphorylation ([1]; C2-ceramide 100 μM, 2 h): without effect | reduction of insulin-stimulated Akt phosphorylation [2]: 70%

COc1ccc2c(c1)c(C1=C(c3c[nH]c4ccccc34)C(=O)NC1=O)cn2CCCN(C)C [Gö6983]
role of the inhibited kinase (atypical PKCs; mTOR and p70S6 kinase) in insulin-stimulated IMPDH phosphorylation ([1]; Gö6983 1 μM, rapamycin 22 nM, data not shown): eliminated

O=c1cc(N2CCOCC2)oc2c(-c3ccccc3)cccc12 [LY294002]
reduction of oleate-induced lipid accumulation (Oil red-O) [3]: approximately 50%

COc1c(C)c2c(c(O)c1C/C=C(\C)CCC(=O)O)C(=O)OC2 [MPA, mycophenolic acid]
lipid accumulation (determined morphologically) ([4]; 1 μM MPA): blocks lipid accumulation; also recorded: reduced lipid accumulation; also recorded: inhibited lipid accumulation | G3PDH activity ([4]; 1 μM MPA, day 8): decreased G3PDH activity | differentiation ([4]; MPA for 6 days (0-6)): block differentiation completely | lipid accumulation and G3PDH activity ([4]; MPA for the first 3 days (0-3) or the second 3 days (3-6) of differentiation): reduced lipid accumulation and G3PDH activity | pIC50 ([4]; Mus musculus, 3T3-L1, increasing MPA for the first 6 days of differentiation, harvested day 8, read-out: IC50 for inhibition of differentiation (G3PDH activity and protein levels)): 6.70 to 7.00 | proliferation/clonal expansion ([5]; 1 μM MPA, first 3 days of differentiation): blocks proliferation/clonal expansion; also recorded: blocked clonal expansion | IMPDH expression ([6]; 1 μM MPA): promotes increased IMPDH expression; also recorded: promoted an increase in IMPDH expression | expression of adipogenic transcription factors CEBPα, CEBPβ, PPARγ ([6]; 1 μM MPA, harvested at day 3): blocks expression of CEBPα, but not CEBPβ or PPARγ; also recorded: induction of expression of the adipogenic transcription factors CEBPβ and PPARγ, but not CEBPα, was apparent | induction of G3PDH activity ([7]; 1 μM MPA): reduced | lipid accumulation ([7]; 1 μM MPA): reduced lipid accumulation and expression of G3PDH activity

Nc1nc2c(ncn2[C@@H]2O[C@H](CO)[C@@H](O)[C@H]2O)c(=O)[nH]1 [guanosine]
lipid accumulation and G3PDH activity in MPA-treated cells ([4]; 60 μM guanosine + 1 μM MPA): reversed the effects of MPA treatment; also recorded: restored lipid accumulation | effects of MPA treatment on lipid accumulation and G3PDH activity ([4]; 300 μM guanosine + 1 μM MPA): still able to reverse the effects of MPA treatment to some extent | lipid accumulation and adipogenesis ([4]; 300 μM guanosine alone): reduced adipogenesis; also recorded: inhibited lipid accumulation and adipogenesis | MPA inhibition of clonal expansion/proliferation ([5]; 60 μM guanosine co-treatment with MPA): Reversal of effects of MPA on clonal expansion; also recorded: reversed the inhibition of proliferation by MPA | MPA-induced increase in IMPDH expression ([6]; co-treatment with guanosine): Reversal of MPA induced increase in IMPDH expression; also recorded: prevented by co-treatment with guanosine | induction of G3PDH activity / differentiation ([7]; 60 μM guanosine): reduced induction of G3PDH activity; also recorded: inhibited differentiation
